This assay in a line: Inhibition of EphB2.

The structures appear in SMILES notation.

The compound `Cc1ccc(C(=O)Nc2cccc(C(F)(F)F)c2)cc1Nc1cncc(C(N)=O)c1` [5-[(2-methyl-5-{[3-(trifluoromethyl)phenyl]carbamoyl}phenyl)amino]pyridine-3-carboxamide] returned an EC50 of 40 nM.

`Cc1cn(-c2cc(NC(=O)c3ccc(C)c(NC(=O)c4ccno4)c3)cc(C(F)(F)F)c2)cn1` [N-(2-methyl-5-(3-(4-methyl-1H-imidazol-1-yl)-5-(trifluoromethyl)phenylcarbamoyl)phenyl)isoxazole-5-carboxamide] had an EC50 of 40 nM.

One may read the EC50 as the midpoint of the concentration-response curve.
